One compound from US20130053425A1, “Method for Lowering Intraocular Pressure Using Gap Junction Blockers” (priority 2011, published 2013) can be followed below.

The test system of assay [1] is porcine ciliary epithelium. As to the kind of experiment: Fluid flow (FF) across the ciliary epithelium in modified Ussing-type chamber. To be noted: aqueous addition of 3.5 mM heptanol, 25° C., n=6 (FIG. 2). The text has this: The reasons being that firstly, no information was available at the time to teach the preparation an intact ciliary epithelium, which is required for fluid flow measurement, and secondly, even when an intact ciliary epithelium was used, there was no device available that would enable measurement of fluid flow across the ciliary epithelium. In view of this, the inventors invested a great deal of effort into developing a modified Ussing-type chamber, which enables fluid flow (FF) and potential difference across the ciliary epithelium to be measured simultaneously. Fundamentally, the Ussing-type chamber includes two hemi-chambers, between which an excised preparation of ciliary epithelium is mounted. […] The graduated capillary can be used to monitor the change in fluid volume inside the second hemi-chamber throughout the experiment, which is then calculated as FF rate. […] At a later stage, the inventors further incorporated electrodes into the FF chamber to enable both electrical parameters and FF to be monitored simultaneously. […] (A) The calculated FF rate in the blood-to-aqueous direction during the course of the experiment. (B) PD recorded simultaneously with the measurement of the capillary levels.

Assay [2] is described as follows: Topical administration of heptanol to rabbit eyes, intraocular pressure (IOP) in vivo. The following applies: topical administration of 1.0% heptanol to the eyes (FIG. 1). An excerpt: FIG. 1 illustrates the effects of topical administration of 1.0% heptanol to rabbit eyes.
Assay [3] relates to ciliary epithelium. The assay can be described thus: In vitro short-circuit current across the ciliary epithelium (ox).
Assay [4] deals with ciliary epithelium. As to the kind of experiment: In vitro short-circuit current across the ciliary epithelium (pig).
Assay [5] deals with ciliary epithelium. The assay can be described thus: In vitro short-circuit current across the ciliary epithelium (rabbit).

Consider `CCCCCCCO` [heptanol], for which the “inhibition of fluid flow across the ciliary epithelium” value in assay [1] is on record as “up to 78%”. In addition, the “effectiveness in lowering intraocular pressure (IOP)” value in assay [2] is “inconclusive results”. The “reduction of short-circuit current across the ciliary epithelium” value in the assay on ciliary epithelium [3], in the assay with ciliary epithelium [4] and in the assay with ciliary epithelium [5] was around 80% in each case.
